The values that follow come from article PMC6377964 (Evidence-based Complementary and Alternative Medicine : eCAM, 2019).

The nature of data set [1]: Kinetic profiles of administered and generated stereoisomers in brain, CSF and plasma of rats after oral administration. It is filed as in vivo, male Sprague-Dawley (SD) rats. As to conditions: for AUC0-180 min, brain / Cmax, brain: rat brain; for AUC(0-t) / Cmax / half-life / Kp / Tmax: male, Sprague-Dawley, po; for half-life: read-out: t 1/2, plasma; for Kp / Tmax: rat; for Tmax: plasma. The source says: Male Sprague-Dawley (SD) rats were provided by the Laboratory Animal Service Center of The Chinese University of Hong Kong, Hong Kong, China. Animals were housed in cages during the study period under standard conditions of temperature, humidity, and light. All animal experiments were approved by the Animal Ethics Committee of The Chinese University of Hong Kong.
One day before the experiment, the male SD rats (160-200 g) were fasted overnight with free access to water. […] The dosage was the same as used in the previous pharmacodynamics studies. […] The rats were exsanguinated by cardiac puncture under anesthesia, followed by collecting their CSF (about 100 μL) through a single puncture in the cisterna magna. Plasma was obtained by centrifugation of blood at 6,000 × g for 8 min at 4°C. After blood collection, the animals were perfused transcardially with normal saline until total blood volume was removed. Then, the whole brain was promptly collected, and the surface water was blotted dry with Kimwipes (Kimberly-Clark™). Blood vessels and meninges were carefully removed with forceps and the brain was weighted. All samples were stored at −20°C until analysis.
Brain homogenate was freshly prepared by homogenizing brain tissues in normal saline (1:2, w/v). Homogenization was conducted in an ice bath using the IKA T10 basic ULTRA-TURRAX Homogenizer for 20–30 s.
The biological samples including brain homogenate, CSF, and plasma (50 μL each) were deproteinized by adding 150 μL of acetonitrile (containing 20 ng/mL IS). After vortex mixing for 1 min, the mixture was centrifuged (20,000 × g) for 10 min at 4°C. After centrifugation, an aliquot (5 μL) of supernatant was subjected to the LC-MS/MS analysis.
The chromatographic separation was achieved on ZORBAX Eclipse Plus C18 column (2.1 × 100 mm, 1.8 μm, Agilent) maintained at 40°C temperature at a flow rate of 0.3 mL/min. A gradient mobile phase consisting of 0.1% formic acid in acetonitrile (A) and 0.1% formic acid in water (B) was eluted as follows: 0–1 min, A, 15–20%; 1–5 min, A, 20–25%; 5–7 min, A, 25–95%; 7–10 min, A held at 95% and returned to the initial condition (acetonitrile-water ratio 15 : 85) for a 3 min equilibration. The temperature of the auto-sampler was kept at 4°C.
All the data were processed using Agilent MassHunter Workstation Software Quantitative Analysis Version B.07.00/Build 7.0.457.0 (Agilent).
Kinetic parameters were calculated using the WinNonlin software (Version 4.0, Pharsight Corp, Mountain View, CA, US) employing a noncompartmental model approach. Epimerization ratio was calculated by AUC(generated stereoisomer)/(AUC(generated stereoisomer) + AUC(administered stereoisomer)) × 100%. The brain-to-plasma partition coefficient (Kp, Brain) was calculated by AUCBrain/AUCPlasma, and the CSF-to-plasma partition coefficient (Kp, CSF) was calculated by AUCCSF/AUCPlasma.
All the data in the study were expressed as mean ± SEM. Statistical analyses were performed using GraphPad Prism 6.0 (GraphPad Software Inc, San Diego, CA, US) using two tailed unpaired t-test for two groups comparison. Statistical significance was set at p value less than 0.05.

The conditions of data set [2]: mainly mediated by CYP3A4; cited from earlier work.
Data set [3] deals with HT22 cell. As to conditions: cited from earlier work.
Details of data set [4]: method as in earlier work. The settings on record: cited from earlier work.
The test system of data set [5] is rats with Aβ25-35-induced cognitive deficits. The settings on record: oral 20 or 40 mg/kg for 3 weeks; cited from earlier work.
The subject of data set [6] is EphA4. More on the design: method as in PMID 24958880. The settings on record: cited from earlier work.
For data set [7] the following is noted: orally administered; cited from earlier work.
Data set [8] concerns P-gp efflux transporter. The settings on record: cited from earlier work.
The test system of data set [9] is APP/PS1 transgenic mice. More on the design: method as in PMID 24958880. As to conditions: oral 50 mg/kg/day for 3-4 weeks; cited from earlier work.
[10] abbreviates: administered stereoisomer, 20 mg/kg p.o., rat CSF.
The mark [11] stands for this setting: administered stereoisomer, 20 mg/kg p.o.
Setting [12] is: generated stereoisomer after 20 mg/kg p.o. of the other stereoisomer.
[13] abbreviates: administered stereoisomer, 20 mg/kg p.o. of the same compound, rat plasma, mean ± SEM, read-out: AUC0-180 min, plasma (converted).
Where [14] appears, read: administered stereoisomer, 20 mg/kg p.o., rat CSF, read-out: AUC0-180 min, CSF (converted).
[15] abbreviates: administered stereoisomer, 20 mg/kg p.o., rat plasma.
Setting [16] is: CSF (relative to plasma), administered stereoisomer, 20 mg/kg p.o., AUCCSF/AUCPlasma, read-out: Kp,CSF (CSF-to-plasma partition coefficient).
[17] abbreviates: brain (relative to plasma), administered stereoisomer, 20 mg/kg p.o., AUCBrain/AUCPlasma, read-out: Kp,Brain (brain-to-plasma partition coefficient).
[18] abbreviates: 20 mg/kg, administered stereoisomer, 20 mg/kg p.o., rat plasma.

For orientation: Cmax means the highest concentration seen after dosing. Usually Kp stands for tissue or fluid exposure divided by exposure in the circulation. One may read the Tmax as the time at which the peak concentration occurs. The pKa is the negative logarithm of the acid dissociation constant.

Molecules are shown by their SMILES. Where “and” joins values, the source holds several entries; their conditions need not be identical. Identical values can stand only once. Like-named read-outs stand apart in the source and are kept apart here.

With `CC[C@H]1CN2CC[C@@]3(C(=O)Nc4ccccc43)[C@@H]2C[C@@H]1/C(=C\OC)C(=O)OC` [IRN, Isorhynchophylline], the “Cmax, CSF” value in data set [1] (setting [10]) stood at 2.14 ± 0.34 ng/mL. Further, the “AUC0-180 min, brain” value in data set [1] (setting [11]) turned out to be 627.37 ± 43.31 ng·min/g; in data set [1] (setting [12]) it was 140.76 ± 1.50 ng·min/g. For the same compound, in [1] (setting [11]), the “Cmax, brain” value came to 7.35 ± 0.74 ng/g. Further, the “Administered IRN metabolically converted to RN” value in data set [1] (after oral administration of IRN 20 mg/kg, rats) is listed as “at least 47%”. Also, the AUC(0-t) was 41.4 ng·h/mL in data set [1] (setting [13]) and 3.4 ng·h/mL in data set [1] (setting [14]). For the same compound, the peak concentration (Cmax) in [1] (setting [15]) came out at 31.3 ± 1.59 ng/mL. The half-life in data set [1] (setting [15]) came out at 64.3 ± 3.19 min. Besides, the Kp is 0.0821 ± 0.005 in data set [1] (setting [16]) and 0.253 ± 0.0187 in [1] (setting [17]). Besides, the Tmax in [1] (setting [18]) was at most 30 min. Further, the “Metabolism in rat liver microsomes” value in data set [2] is recorded as “much more favorable to be metabolized than RN”. In addition, in data set [3], the “Neuroprotective activity against glutamate-induced HT22 cell injury” value is listed as “significant neuroprotective activity”. Further, in data set [4], the pKa is 5.20. The “Cognitive deficits induced by Aβ25-35” value in data set [5] is “ameliorated cognitive deficits”. The “Inhibition of EphA4” value in data set [6] is listed as “not”. Besides, the Bioavailability in data set [7] is recorded as 3.3 ± 0.8%.
For `CC[C@H]1CN2CC[C@]3(C(=O)Nc4ccccc43)[C@@H]2C[C@@H]1/C(=C\OC)C(=O)OC` [RN, rhynchophylline], in data set [1] (setting [10]), the “Cmax, CSF” value was 7.39 ± 0.17^∗∗∗ ng/mL. For the same compound, the “Cmax, brain” value in data set [1] (setting [11]) is reported as 16.96 ± 1.92^∗∗ ng/g. Besides, the “AUC0-180 min, brain” value in data set [1] (administered stereoisomer, 20 mg/kg p.o., 20 mg/kg) was 1587.03 ± 127.82 ng·min/g and 1587.03 ± 127.82^∗∗ ng·min/g; in data set [1] (setting [12]), 296.63 ± 9.49^∗∗ ng·min/g. Also, the AUC(0-t) in [1] (setting [13]) is 273 ng·h/mL; in data set [1] (setting [14]), 12.4 ng·h/mL. The Cmax in [1] (setting [15]) came out at 191 ± 6.34 ng/mL. The half-life in [1] (setting [15]) is 130 ± 9.3 min. Moreover, the Kp in [1] (setting [16]) came to 0.0453 ± 0.0002; in [1] (setting [17]) it was 0.0967 ± 0.0063. Besides, the Tmax in data set [1] (setting [18]) is at most 30 min. In addition, the “Neuroprotective activity against glutamate-induced HT22 cell injury” value in [3] was “weak effect”. Moreover, the pKa in data set [4] was 6.32. In addition, the “Membrane permeability, effect of P-gp efflux” value in data set [8] is given as “affected by P-gp efflux transporter”. In addition, the “Long-term potentiation in the hippocampus” value in data set [9] is “restored the impaired long-term potentiation”. Moreover, the “Inhibition of EphA4” value in [6] is given as “potent inhibitor”. Besides, the Bioavailability in data set [7] is listed as 25.9 ± 8.7%.
